“And” between values parts separate entries of the source, which are not always exact repeats. Equal values may be shown once. Read-outs that look alike come from different tables or passages of the source.
Tests used:
HCoV‐NL63 = experiment: microbe, parasite or virus in culture; format: cell-based; details: Human coronavirus NL63, LLC-MK2, read-out: EC50 ± SD, HCoV‐NL63
in vivo = details: ICR, mouse, po
HCoV‐OC43 = experiment: microbe, parasite or virus in culture; format: cell-based; details: Betacoronavirus 1, MRC5, read-out: EC50 ± SD, HCoV‐OC43
[1] = tested on: SARS‐CoV‐2 (hCoV‐19/Korea/KCDC06/2020, wild type); experiment: microbe, parasite or virus in culture; format: cell-based
in vitro = details: rhesus monkey
[2] = tested on: SARS‐CoV‐2 S and N proteins; format: cell-based
[3] = Cytotoxicity assay (MTT) in MRC‐5 cells; details: human
SARS‐CoV‐2 M^pro = SARS‐CoV‐2 M^pro (Severe acute respiratory syndrome coronavirus 2, UniProt P0DTD1); experiment: biochemical; details: reported K M value and Cheng‐Prusoff equation
[4] = for Plasma concentration (Calculated Concentration): mouse plasma
[5] = tested on: SARS‐CoV‐2 Delta (hCoV‐19/Korea/KDCA119861/2021); experiment: microbe, parasite or virus in culture; format: cell-based; details: Severe acute respiratory syndrome coronavirus 2; Calu‐3; read-out: EC50 ± SD, SARS‐CoV‐2 Delta
[6] = 10 mg/kg, p.o. in combination with ritonavir, p.o. 10 mg kg^−1 with 20 mg kg^−1 ritonavir, ICR mice, n = 3
[7] = male, 10 mg/kg, Mean, C5N17B+Ritonavir, PO 10 mg/kg, mean of 3 mice
[8] = male, 10 mg/kg, Plasma concentration (Calculated Concentration), C5N17B+Ritonavir, PO 10 mg/kg, mouse plasma, individual mice
[9] = male, 10 mg/kg, Plasma concentration, Mean, C5N17B+Ritonavir, PO 10 mg/kg, mean of mice 1#-3#
[10] = C5N17B+Ritonavir, PO 10 mg/kg, individual mice 1#-3#, 10 mg/kg
[11] = C5N17B+Ritonavir, po 10 mg/kg, based on predicted Clast, individual mice, 10 mg/kg
[12] = C5N17B+Ritonavir, po 10 mg/kg, dose-normalised, individual mice, 10 mg/kg
[13] = C5N17B+Ritonavir, po 10 mg/kg, non-compartmental output, individual mice, 10 mg/kg

With Cc1cncc(C(=O)N2C[C@H]3CC[C@@H](C2)N3[C@H](c2cccc(F)c2)c2cn(CCc3ccsc3)nn2)c1 [Compound C5N17B] the EC50 (HCoV‐NL63) was greater than 100000 nM, the Cmax (in vivo; [6]) was 2300 ± 162 ng/mL and the MRT (in vivo; 10 mg/kg, MRT0‐t, p.o. in combination with ritonavir, p.o. 10 mg kg^−1 with 20 mg kg^−1 ritonavir, ICR mice, n = 3) was 3.15 ± 0.456 h. For the same molecule, the MRT (in vivo; 10 mg/kg, MRT0‐∞, p.o. in combination with ritonavir, p.o. 10 mg kg^−1 with 20 mg kg^−1 ritonavir, ICR mice, n = 3) was 4.88 ± 2.7 h, the Tmax (in vivo; [6]) was 2.08 ± 1.88 h and the half-life (in vivo; 10 mg/kg, t1/2, p.o. in combination with ritonavir, p.o. 10 mg kg^−1 with 20 mg kg^−1 ritonavir, ICR mice, n = 3) was 3.14 ± 2.06 h. It also gave an AUC (in vivo; AUC0‐t, p.o. in combination with ritonavir, p.o. 10 mg kg^−1 with 20 mg kg^−1 ritonavir, ICR mice, n = 3) of 11500 ng·h/mL, an AUC(0-t) (in vivo; male, 10 mg/kg, AUC0-t, C5N17B+Ritonavir, PO 10 mg/kg, individual mice 1#-3#) of 9690 ng·h/mL and an AUC(0-t) (in vivo; male, 10 mg/kg, AUC0-t, Mean, C5N17B+Ritonavir, PO 10 mg/kg, mean of 3 mice) of 11500 ng·h/mL. For the same molecule, the AUC(0-inf) (in vivo; male, 10 mg/kg, AUC0-∞, C5N17B+Ritonavir, PO 10 mg/kg, individual mice 1#-3#) was 10400 ng·h/mL, the AUC(0-inf) (in vivo; male, 10 mg/kg, AUC0-∞, Mean, C5N17B+Ritonavir, PO 10 mg/kg, mean of 3 mice) was 14200 ng·h/mL and the AUC(0-inf) (in vivo; male, 10 mg/kg, AUCINF_obs, C5N17B+Ritonavir, po 10 mg/kg, non-compartmental output, individual mice) was 10400 ng·h/mL. The AUC(0-inf) (in vivo; male, 10 mg/kg, AUCINF_pred, C5N17B+Ritonavir, po 10 mg/kg, based on predicted Clast, individual mice) was 10800 ng·h/mL, the AUC (in vivo; male, 10 mg/kg, AUCall, C5N17B+Ritonavir, po 10 mg/kg, non-compartmental output, individual mice) was 9690 ng·h/mL and the AUC(0-t) (in vivo; male, 10 mg/kg, AUClast, C5N17B+Ritonavir, po 10 mg/kg, non-compartmental output, individual mice) was 9690 ng·h/mL. The CL/F (in vivo; male, 10 mg/kg, Cl_F_obs, C5N17B+Ritonavir, po 10 mg/kg, non-compartmental output, individual mice) was 16 mL/min/kg, the Cmax (in vivo; male, 10 mg/kg, C5N17B+Ritonavir, PO 10 mg/kg, individual mice 1#-3#) was 2270 ng/mL and the Cmax (in vivo; male, 10 mg/kg, C5N17B+Ritonavir, po 10 mg/kg, non-compartmental output, individual mice) was 2270 ng/mL. For the same molecule, the Cmax (in vivo; [7]) was 2300 ng/mL, the MRT last (in vivo; male, 10 mg/kg, MRT0-t, C5N17B+Ritonavir, PO 10 mg/kg, individual mice 1#-3#) was 2.62 h and the MRT last (in vivo; male, 10 mg/kg, MRT0-t, Mean, C5N17B+Ritonavir, PO 10 mg/kg, mean of 3 mice) was 3.15 h. It also gave an MRT inf (in vivo; male, 10 mg/kg, MRT0-∞, Mean, C5N17B+Ritonavir, PO 10 mg/kg, mean of 3 mice) of 4.88 h, an MRT last (in vivo; male, 10 mg/kg, MRTlast, C5N17B+Ritonavir, po 10 mg/kg, non-compartmental output, individual mice) of 2.62 h and a concentration at 5 min (in vivo; male, 10 mg/kg, Plasma concentration (Calculated Concentration), C5N17B+Ritonavir, PO 10 mg/kg, mouse plasma, 5 min (5min), individual mice) of 680 ng/mL. It also gave a concentration at 0.5 h (in vivo; male, 10 mg/kg, Plasma concentration (Calculated Concentration), C5N17B+Ritonavir, PO 10 mg/kg, mouse plasma, 0.5 h (30min), individual mice) of 2280 ng/mL, a concentration at 1 h (in vivo; [8]) of 2210 ng/mL and a concentration at 2 h (in vivo; [8]) of 1910 ng/mL. For the same molecule, the concentration at 4 h (in vivo; [8]) was 1180 ng/mL, the concentration at 5 min (in vivo; male, 10 mg/kg, Plasma concentration, Mean, C5N17B+Ritonavir, PO 10 mg/kg, 5 min, mean of mice 1#-3#) was 660 ng/mL and the concentration at 0.5 h (in vivo; male, 10 mg/kg, Plasma concentration, Mean, C5N17B+Ritonavir, PO 10 mg/kg, 0.50 h, mean of mice 1#-3#) was 1740 ng/mL. The concentration at 1 h (in vivo; [9]) was 1970 ng/mL, the concentration at 2 h (in vivo; [9]) was 2110 ng/mL and the concentration at 4 h (in vivo; [9]) was 1750 ng/mL. The concentration at 6 h (in vivo; male, 10 mg/kg, Plasma concentration, Mean, C5N17B+Ritonavir, PO 10 mg/kg, 6 h, mean of mice 1#-3#) was 1040 ng/mL, the concentration at 8 h (in vivo; male, 10 mg/kg, Plasma concentration, Mean, C5N17B+Ritonavir, PO 10 mg/kg, 8 h, mean (1# BQL)) was 490 ng/mL and the half-life (in vivo; male, 10 mg/kg, T1/2, Mean, C5N17B+Ritonavir, PO 10 mg/kg, mean of 3 mice) was 3.14 h. For the same molecule, the Tmax (in vivo; [7]) was 2.08 h, the EC50 (HCoV‐OC43) was 2710 ± 510 nM and the EC50 ([1]; Severe acute respiratory syndrome coronavirus 2, Calu-3, Calu‐3, read-out: EC50 ± SD, SARS‐CoV‐2 Wild‐type) was 119 ± 11 nM. For the same molecule, the EC50 ([1]; Severe acute respiratory syndrome coronavirus 2, Calu-3, Calu‐3 cells, racemate, enantiomers and […] measured in the same system, read-out: EC50, anti‐SARS‐CoV‐2 activity in Calu‐3 cells (Figure 3B)) was 78 nM, the CC50 (in vitro) was greater than 100000 nM and the “SARS‐CoV‐2 S and N proteins in virus‐infected cells” value [2] was “dose‐dependent reduction”. For the same molecule, the CC50 at 5 day [3] was greater than 100000 nM, the CC50 at 6 day [3] was greater than 100000 nM and the Ki (SARS‐CoV‐2 M^pro) was 26.6 nM. For the same molecule, the “AUC0-∞” value [4, 10] was 13462 ng·h/mL and 18653 ng·h/mL, the AUC(0-t) [4, 10] was 13105 ng·h/mL and 11834 ng·h/mL and the Cmax [4, 10] was 2150 ng/mL and 2470 ng/mL. The MRT0-t [4, 10] was 3.43 h and 3.39 h, the “MRT0-∞” value [4, 10] was 3.03 h and 3.63 h and 7.98 h and the T1/2 [4, 10] was 1.87 h and 2.03 h and 5.52 h. For the same molecule, the “Plasma concentration (Calculated Concentration)” value ([4]; C5N17B+Ritonavir, PO 10 mg/kg, 5 min (5min), individual mice, 10 mg/kg) was 861 ng/mL and 439 ng/mL, the “Plasma concentration (Calculated Concentration)” value ([4]; C5N17B+Ritonavir, PO 10 mg/kg, 0.5 h (30min), individual mice, 10 mg/kg) was 1220 ng/mL and 1720 ng/mL and the “Plasma concentration (Calculated Concentration)” value ([4]; C5N17B+Ritonavir, PO 10 mg/kg, 1 h, individual mice, 10 mg/kg) was 1750 ng/mL and 1960 ng/mL. For the same molecule, the “Plasma concentration (Calculated Concentration)” value ([4]; C5N17B+Ritonavir, PO 10 mg/kg, 2 h, individual mice, 10 mg/kg) was 2270 ng/mL and 2140 ng/mL, the “Plasma concentration (Calculated Concentration)” value ([4]; C5N17B+Ritonavir, PO 10 mg/kg, 4 h, individual mice, 10 mg/kg) was 1920 ng/mL and 2150 ng/mL and the AUCINF_pred [4, 11] was 13994.4 ng·h/mL and 18824.1 ng·h/mL. The Cl_F_pred [4, 11] was 15.3694 mL/min/kg and 11.9096 mL/min/kg and 8.85392 mL/min/kg, the MRTINF_pred [4, 11] was 3.269 h and 3.905 h and 8.0548 h and the Vz_F_pred [4, 11] was 2.48776 L/kg and 2.09319 L/kg and 4.22695 L/kg. For the same molecule, the AUCINF_D_pred ([4]; C5N17B+Ritonavir, po 10 mg/kg, dose-normalised, based on predicted Clast, individual mice, 10 mg/kg) was 1084.41 kg·ng·h/mL/mg and 1399.44 kg·ng·h/mL/mg and 1882.41 kg·ng·h/mL/mg, the AUCINF_D_obs [4, 12] was 1039.52 kg·ng·h/mL/mg and 1346.22 kg·ng·h/mL/mg and 1865.31 kg·ng·h/mL/mg and the AUClast_D [4, 12] was 968.565 kg·ng·h/mL/mg and 1310.48 kg·ng·h/mL/mg and 1183.41 kg·ng·h/mL/mg. The Cmax_D [4, 12] was 227 kg·ng/mL/mg and 215 kg·ng/mL/mg and 247 kg·ng/mL/mg, the Tlag ([4]; C5N17B+Ritonavir, po 10 mg/kg, non-compartmental output, individual mice) was 0 h and the AUCINF_obs [4, 13] was 13462.2 ng·h/mL and 18653.1 ng·h/mL. The AUCall [4, 13] was 13104.8 ng·h/mL and 11834.1 ng·h/mL, the AUClast [4, 13] was 13104.8 ng·h/mL and 11834.1 ng·h/mL and the AUMClast [4, 13] was 25373.2 h*h*ng/ml and 44928.8 h*h*ng/ml and 40086.7 h*h*ng/ml. For the same molecule, the Cl_F_obs [4, 13] was 12.3804 mL/min/kg and 8.93505 mL/min/kg, the Cmax [4, 13] was 2150 ng/mL and 2470 ng/mL and the HL_Lambda_z [4, 13] was 1.87 h and 2.03 h and 5.515 h. The Lambda_z [4, 13] was 0.3707 h⁻¹ and 0.3414 h⁻¹ and 0.1257 h⁻¹, the MRTINF_obs [4, 13] was 3.035 h and 3.628 h and 7.982 h and the MRTlast [4, 13] was 3.428 h and 3.387 h. The Tlast [4, 13] was 6 h and 8 h, the Vz_F_obs [4, 13] was 2.5952 L/kg and 2.17594 L/kg and 4.26569 L/kg and the Clast_pred ([4]; C5N17B+Ritonavir, po 10 mg/kg, predicted from terminal fit, individual mice, 10 mg/kg) was 429.412 ng/mL and 303.677 ng/mL and 878.481 ng/mL. The “plasma exposure (AUC0‐t) with ritonavir higher than when administered alone” value ([4]; p.o. 10 mg kg^−1) was roughly 300 fold and the EC50 [5] was 154 ± 19 nM.
